Source: patent US9914730B2, “Azaquinazoline inhibitors of Atypical protein Kinase C” (Ignyta, Inc., priority 2012, dated 2018)

Target: T1, full-length human PKCι (Homo sapiens, UniProt P41743)
T1 construct: Recombinant, full-length human PKCι expressed in Sf21 insect cells is also commercially available; purchased; host or cells: Sf21 insect cells
T1 sequence (P41743 1-596): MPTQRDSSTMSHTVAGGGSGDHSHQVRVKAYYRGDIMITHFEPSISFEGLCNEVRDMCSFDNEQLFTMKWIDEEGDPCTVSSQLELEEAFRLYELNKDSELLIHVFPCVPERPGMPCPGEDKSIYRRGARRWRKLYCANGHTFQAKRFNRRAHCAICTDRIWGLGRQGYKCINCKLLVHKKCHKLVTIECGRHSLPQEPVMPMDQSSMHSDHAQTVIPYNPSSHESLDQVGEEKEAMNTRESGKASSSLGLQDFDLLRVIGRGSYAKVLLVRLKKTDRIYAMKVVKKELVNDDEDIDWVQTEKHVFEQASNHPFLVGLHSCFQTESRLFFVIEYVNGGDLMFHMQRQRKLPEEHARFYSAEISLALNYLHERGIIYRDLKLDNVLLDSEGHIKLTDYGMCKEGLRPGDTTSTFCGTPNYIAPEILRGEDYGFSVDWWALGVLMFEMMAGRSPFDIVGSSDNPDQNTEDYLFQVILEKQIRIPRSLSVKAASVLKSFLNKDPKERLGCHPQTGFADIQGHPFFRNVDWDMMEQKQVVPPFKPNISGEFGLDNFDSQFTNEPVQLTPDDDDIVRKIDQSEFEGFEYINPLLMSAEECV
Experiment: PKCι IC50 IMAP assay, full-length PKCι at 150 μM ATP
Format: biochemical
Conditions: read-out: IC50 in IMAP assay against full length PKCi at 150 μM ATP
Outline: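 Phosphorylation of a 5FAM-tagged PKCε pseudopeptide-derived substrate (100 nM) by full-length recombinant human PKCι was monitored by IMAP fluorescence polarisation. ATP was held at 150 μM, five times its apparent KM, with 60 min room-temperature incubation.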

## c1cc(-c2nc(N3CCNCC3)c3c(C4CC4)cncc3n2)cc(Nc2nc3ccc(C4CC4)cn3n2)n1 [Example 2012, [4-(5-Cyclopropyl-4-piperazin-1-yl-pyrido[3,4-d]pyrimidin-2-yl)-pyridin-2-yl]-(6-cyclopropyl-[1,2,4]triazolo[1,5-a]pyridin-2-yl)-amine]
  IC50: < 100 nM

## OC[C@@H](O)CN1CCN(c2nc(-c3ccnc(Nc4ccccc4)c3)nc3cncc(C4CC4)c23)CC1 [Example 607, (S)-3-{4-[5-Cyclopropyl-2-(2-phenylamino-pyridin-4-yl)-pyrido[3,4-d]pyrimidin-4-yl]-piperazin-1-yl}-propane-1,2-diol]
  IC50: 100 to 1000 nM

## COc1cncc2nc(-c3ccnc(NC(=O)[C@@H](C)c4ccccc4)c3)nc(N[C@@H]3CCNC3)c12 [Example 407, (S)-N-{4-[5-Methoxy-4-((R)-pyrrolidin-3-ylamino)-pyrido[3,4-d]pyrimidin-2-yl]-pyridin-2-yl}-2-phenyl-propionamide]
  IC50: 100 to 1000 nM

## CN(c1nc(-c2ccnc(Nc3ncc(Cl)cc3F)c2)nc2cncc(C3CC3)c12)C1CCNCC1 [Example 2151, {2-[2-(5-Chloro-3-fluoro-pyridin-2-ylamino)-pyridin-4-yl]-5-cyclopropyl-pyrido[3,4-d]pyrimidin-4-yl}-methyl-piperidin-4-yl-amine]
  IC50: < 100 nM

## Fc1ccc(F)c2c1[nH]c1nccc(-c3nc(N4CCNCC4)c4c(C5CC5)cncc4n3)c12 [Example 2027, 4-(5-Cyclopropyl-4-piperazin-1-yl-pyrido[3,4-d]pyrimidin-2-yl)-5,8-difluoro-9H-pyrido[2,3-b]indole]
  IC50: < 100 nM

## Fc1ccc(F)c(Nc2cc(-c3nc(N4CCNCC4)c4c(C5CC5)cncc4n3)ccn2)c1F [Example 266, [4-(5-Cyclopropyl-4-piperazin-1-yl-pyrido[3,4-d]pyrimidin-2-yl)-pyridin-2-yl]-(2,3,6-trifluoro-phenyl)-amine]
  IC50: < 100 nM

## c1ccc(Nc2cc(-c3nc(N4CCCNCC4)c4c(C5CC5)cncc4n3)ccn2)cc1 [Example 632, [4-(5-Cyclopropyl-4-[1,4]diazepan-1-yl-pyrido[3,4-d]pyrimidin-2-yl)-pyridin-2-yl]-phenyl-amine]
  IC50: < 100 nM

## CC(=O)Nc1cc(-c2nc(N3CCN[C@H](C(F)(F)F)C3)c3c(C4CC4)cncc3n2)ccn1 [Example 659, N-{4-[5-Cyclopropyl-4-((S)-3-trifluoromethyl-piperazin-1-yl)-pyrido[3,4-d]pyrimidin-2-yl]-pyridin-2-yl}-acetamide]
  IC50: 100 to 1000 nM

## COc1ccc(F)c(Nc2cc(-c3nc(N4CCNCC4)c4c(C5CC5)cncc4n3)ccn2)c1Cl [Example 634, (2-Chloro-6-fluoro-3-methoxy-phenyl)-[4-(5-cyclopropyl-4-piperazin-1-yl-pyrido[3,4-d]pyrimidin-2-yl)-pyridin-2-yl]-amine]
  IC50: < 100 nM

## c1cc2c(N[C@@H]3CCNC3)nc(-c3ccnc(Nc4ccc(N5CCOCC5)cn4)c3)nc2cn1 [Example 357, {2-[2-(5-Morpholin-4-yl-pyridin-2-ylamino)-pyridin-4-yl]-pyrido[3,4-d]pyrimidin-4-yl}-(R)-pyrrolidin-3-yl-amine]
  IC50: < 100 nM

## NC(=O)N[C@H](CNc1nc(-c2ccncc2)nc2cnccc12)Cc1ccccc1 [Example 84, (1-phenyl-3-{[2-(pyridin-4-yl)pyrido[3,4-d]pyrimidin-4-yl]amino}propan-2-yl)urea]
  IC50: 10000 to 40000 nM

## COc1cncc2nc(-c3ccnc(NC(=O)[C@H](C)c4ccccc4)c3)nc(N3CCNCC3)c12 [Example 408, (R)-N-[4-(5-Methoxy-4-piperazin-1-yl-pyrido[3,4-d]pyrimidin-2-yl)-pyridin-2-yl]-2-phenyl-propionamide]
  IC50: 100 to 1000 nM

## O[C@@H]1Cc2ccccc2[C@H]1Nc1cc(-c2nc(N3CCNCC3)c3c(C4CC4)cncc3n2)ccn1 [Example 2143, (1R,2R)-1-[4-(5-Cyclopropyl-4-piperazin-1-yl-pyrido[3,4-d]pyrimidin-2-yl)-pyridin-2-ylamino]-indan-2-ol]
  IC50: < 100 nM

## OC[C@H](O)CN1CCN(c2nc(-c3ccnc(Nc4ccccc4)c3)nc3cncc(C4CC4)c23)CC1 [Example 608, (R)-3-{4-[5-Cyclopropyl-2-(2-phenylamino-pyridin-4-yl)-pyrido[3,4-d]pyrimidin-4-yl]-piperazin-1-yl}-propane-1,2-diol]
  IC50: 100 to 1000 nM

## c1ccc2c(c1)CCC(Nc1cc(-c3nc(N4CCNCC4)c4c(C5CC5)cncc4n3)ccn1)C2 (stereo not drawn) [Example 2137, [4-(5-Cyclopropyl-4-piperazin-1-yl-pyrido[3,4-d]pyrimidin-2-yl)-pyridin-2-yl]-(1,2,3,4-tetrahydro-naphthalen-2-yl)-amine]
  IC50: < 100 nM

## c1cc(Nc2cc(-c3nc(N[C@@H]4CCNC4)c4ccncc4n3)ccn2)ncn1 [Example 347, {2-[2-(Pyrimidin-4-ylamino)-pyridin-4-yl]-pyrido[3,4-d]pyrimidin-4-yl}-(R)-pyrrolidin-3-yl-amine]
  IC50: < 100 nM

## CN1CCN(c2nc(-c3ccnc(Nc4cccc(N5CCC(O)CC5)c4)c3)nc3cncc(C4CC4)c23)CC1 [Example 728, 1-(3-{4-[5-Cyclopropyl-4-(4-methyl-piperazin-1-yl)-pyrido[3,4-d]pyrimidin-2-yl]-pyridin-2-ylamino}-phenyl)-piperidin-4-ol]
  IC50: 100 to 1000 nM

## COc1cncc2nc(-c3ccncc3)nc(N3CCN[C@@H](C(O)c4ccc(F)cc4)C3)c12 (mixture of isomers) [Example 77, (4-fluorophenyl) [(2R)-4-[5-methoxy-2-(pyridin-4-yl)-pyrido[3,4-d]-pyrimidin-4-yl]-piperazin-2-yl]-methanol]
  IC50: < 100 nM

## COc1cc(N2CCOCC2)ccc1Nc1cc(-c2nc(N[C@@H]3CCNC3)c3ccncc3n2)ccn1 [Example 358, {2-[2-(2-Methoxy-4-morpholin-4-yl-phenylamino)-pyridin-4-yl]-pyrido[3,4-d]pyrimidin-4-yl}-(R)-pyrrolidin-3-yl-amine]
  IC50: 100 to 1000 nM

## c1cc(Nc2cc(-c3nc(N4CCNCC4)c4c(C5CC5)cncc4n3)ccn2)c2nonc2c1 [Example 2104, Benzo[1,2,5]oxadiazol-4-yl-[4-(5-cyclopropyl-4-piperazin-1-yl-pyrido[3,4-d]pyrimidin-2-yl)-pyridin-2-yl]-amine]
  IC50: < 100 nM

## N#Cc1ccc(Nc2cc(-c3nc(N4CCNCC4)c4c(Cl)cncc4n3)ccn2)cn1 [Example 260, 5-[4-(5-Chloro-4-piperazin-1-yl-pyrido[3,4-d]pyrimidin-2-yl)-pyridin-2-ylamino]-pyridine-2-carbonitrile]
  IC50: 10000 to 40000 nM

## N#Cc1ccnc(Nc2cc(-c3nc(N4CC[C@@H](O)[C@H](O)C4)c4c(C5CC5)cncc4n3)ccn2)c1 (racemic) [Example 677, (+/−)-2-{4-[5-Cyclopropyl-4-((trans)-3,4-dihydroxy-piperidin-1-yl)-pyrido[3,4-d]pyrimidin-2-yl]-pyridin-2-ylamino}-isonicotinonitrile]
  IC50: 100 to 1000 nM

## COc1cncc2nc(-c3ccncc3)nc(N3CCN(CC#N)CC3)c12 [Example 87, 2-{4-[5-methoxy-2-(pyridin-4-yl)pyrido[3,4-d]pyrimidin-4-yl]piperazin-1-yl}acetonitrile]
  IC50: 10000 to 40000 nM

## c1ccc(Nc2cc(-c3nc(N4C[C@@H]5C[C@H]4CN5)c4ccncc4n3)ccn2)cc1 [Example 306, {4-[(1S,4S)-4-(2,5-Diaza-bicyclo[2.2.1]hept-2-yl)-pyrido[3,4-d]pyrimidin-2-yl]-pyridin-2-yl}-phenyl-amine]
  IC50: 1000 to 10000 nM

## CC(=O)Nc1cc(-c2nc(N3CCNCC3)c3c(C4CC4)cncc3n2)ccn1 [Example 581, N-[4-(5-Cyclopropyl-4-piperazin-1-yl-pyrido[3,4-d]pyrimidin-2-yl)-pyridin-2-yl]-acetamide]
  IC50: < 100 nM

## c1cc(-c2nc(N3CCC4NCC[C@H]4C3)c3ccncc3n2)ccn1 (stereo partly drawn) [Example 67, 4-{4-[(3aS)-octahydro-1H-pyrrolo[3,2-c]-pyridin-5-yl]-pyrido[3,4-d]-pyrimidin-2-yl}-pyridine]
  IC50: 10000 to 40000 nM

## c1cc(-c2nc(N3CCOCC3)c3ccncc3n2)ccn1 [Example 21, 4-[2-(pyridin-4-yl)pyrido[3,4-d]-pyrimidin-4-yl]morpholine]
  IC50: 10000 to 40000 nM

## COc1cncc2nc(-c3ccnc(NC(=O)Cc4cccc(C#N)c4)c3)nc(N3CCOCC3)c12 [Example 389, 2-(3-Cyano-phenyl)-N-[4-(5-methoxy-4-morpholin-4-yl-pyrido[3,4-d]pyrimidin-2-yl)-pyridin-2-yl]-acetamide]
  IC50: 100 to 1000 nM

## CN1CCN(c2cccc(Nc3cc(-c4nc(N5CCCCC5)c5c(C6CC6)cncc5n4)ccn3)c2)CC1 [Example 710]
  IC50: 100 to 1000 nM

## N#Cc1ccnc(Nc2cc(-c3nc(N4CCC(O)C(O)C4)c4c(C5CC5)cncc4n3)ccn2)c1 (racemic) [Example 485, (±)-2-{4-[5-Cyclopropyl-4-cis-3,4-dihydroxy-piperidin-1-yl)-pyrido[3,4-d]pyrimidin-2-yl]-pyridin-2-ylamino}-isonicotinonitrile]
  IC50: < 100 nM
